# Tested on: C. phytofermentans
# Conditions: basal medium; ethanol production from pretreated corn stover
# Protocol: To examine the effect of individual nutrients (e.g., vitamins or amino acids) on the growth and/or ethanol production of C. phytofermentans, complex nutrients such as yeast extract were reduced to a minimal concentration that will permit sub-optimal growth. Each specific nutrient is added in a titration of increasing amount until a “saturation” of effect is observed.
# Corn Stover, Mono and Dibasic Potassium Phosphate and Sodium Chloride were sterilized by autoclaving and the remaining components were added aseptically to each fermentation flask. DBY and CSP were separately prepared each as 100 g/L stocks and autoclaved.
# All solutions and materials were degassed prior to use. Prior to inoculation, all flasks receive a sterile addition of commercial cellulases (from Novozymes) consisting of (per 100 mL medium): 0.25 mL Cat# NS50013 and 0.83 mL of diluted (1/10 in water) Cat# NS22002. […]
# Following inoculation, flasks were placed in shaking fermenters at 35° C. with agitation at 175 rpm and sampled daily. […] Samples were analyzed for sugars (cellobiose, xylose, arabinose, and glucose) and fermentation products (formic, lactic, and acetic acids and ethanol) using HPLC.
structure (smiles),measurement,value
"O=C(O)c1cccnc1 [nicotinic acid, Nicotinic acid]",nicotinic acid supplementation above which a saturation effect is seen,> 10 mg/L
